{"source": "paper PMC11943115", "about": "“GSTD1 Mediates the Tolerance to Abamectin and Beta-Cypermethrin in the Fall Armyworm Spodoptera frugiperda” (Insects, 2025)", "target": "T1, SfGSTD1 (Spodoptera frugiperda, UniProt A0A9R0F5L2)", "T1 construct": "gene LOC118269876; not XP_035440580.2, another SfGSTD1 of the literature that clusters with SeGSTD3", "T1 sequence (A0A9R0F5L2 1-244)": "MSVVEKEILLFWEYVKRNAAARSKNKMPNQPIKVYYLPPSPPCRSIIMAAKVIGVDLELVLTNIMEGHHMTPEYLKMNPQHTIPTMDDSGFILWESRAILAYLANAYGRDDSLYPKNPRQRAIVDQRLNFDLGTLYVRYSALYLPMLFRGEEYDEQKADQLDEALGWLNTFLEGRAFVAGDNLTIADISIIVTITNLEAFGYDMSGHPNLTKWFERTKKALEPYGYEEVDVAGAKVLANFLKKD", "assay": "GSH conjugation, absorbance […] nm", "type": "biochemical", "conditions": "4 mM GSH; CDNB 0.125 to 4 mM", "data": [{"smiles": "O=[N+]([O-])c1ccc(Cl)c([N+](=O)[O-])c1", "note": "[CDNB]", "values": [{"measurement": "Km", "value": "421 ± 109", "unit": "µM"}]}]}
